{
  "source": "paper PMC9487543",
  "about": "(Antimicrobial Agents and Chemotherapy, 2022)",
  "key": {"[1]": {"conditions": "cited from earlier work"}, "[2]": {"experiment": "Plasma pharmacokinetics in hemodialysis-dependent subjects, On-dialysis vs Off-dialysis periods", "assay_type": "in vivo, human", "conditions": "for AUC(0-inf) / Cmax / AUCinf / CL / VZ / t1/2: single 2 h IV infusion 2 g cefepime + 0.5 g taniborbactam; for AUC(0-inf) / Cmax / AUCinf / CL / VZ: geometric mean (geometric CV %); for t1/2: mean (SD)", "description": "(§1) In addition to the groups enrolled by renal function to study the effect of renal impairment, a group of subjects with ESRD undergoing chronic intermittent hemodialysis were enrolled into a separate group (Group 5; “Dialysis”) to determine the amounts of drug removed by filtration. Hemodialysis used standard commercial dialyzers and membranes. […] A fixed sequence of dialysis timing with respect to dose was used, where the dose was administered prior to dialysis in the first treatment period (“On-dialysis”; Period 1) and administered following dialysis in the second treatment period (“Off-dialysis”; Period 2). […] For the Off-dialysis period, subjects had the SOI begin approximately 6 h after the start of dialysis, which was after the dialysis had been completed.\nAdditional blood samples, if not already collected by a defined time point, were collected at 1 h after the start of dialysis and again at the end of dialysis.\nHuman dipotassium ethylenediaminetetraacetic acid plasma samples were processed using protein precipitation prior to assay. Urine samples collected for pharmacokinetic analysis in the study were processed and assayed for only taniborbactam using a validated bioanalytical method. […] Acidified urine and dialysate samples were processed using solid-phase extraction prior to assay. […]\n(§2) Estimated plasma pharmacokinetic parameters included the Cmax, time to Cmax (Tmax), AUC through the last measurable observed concentration (AUCt), AUCinf, t1/2, CL, and VZ. For taniborbactam, using the urine observations, the amount excreted unchanged in urine (Ae), fraction excreted unchanged in urine as the percentage of administered dose (Fe), renal clearance (CLR), and nonrenal clearance (CLNR) were calculated. The actual sample times were used to calculate the pharmacokinetic parameters. […] If a good estimate of λZ could not be determined for a concentration-time profile, then none of the pharmacokinetic parameters dependent on λZ were calculated.\n(§3) For Dialysis subjects (Group 5), the effect of hemodialysis was examined by comparing differences within each subject (On-Dialysis versus Off-Dialysis). The CLd was calculated by taking the individual averaged arterial to venous concentration extraction ratio (CER), multiplying by the reported Qb, and correcting for hematocrit (hct). The hct was estimated as 0.47, an assumption based on the fact that all subjects in the group were male. The amounts of drug removed by hemodialysis (Adial) were calculated using the area under the excretion rate curves, where the rates were determined using the spot dialysis concentrations and estimated dialysate volumes over a 1 min period using the Qd. The fraction of drug removed during hemodialysis, or HER, was then determined by dividing Adial by dose and was expressed as a percentage."}, "[3]": {"experiment": "Urine pharmacokinetics (renal clearance) of taniborbactam by renal group", "assay_type": "in vivo, human", "conditions": "single 2 h IV infusion 2 g cefepime + 0.5 g taniborbactam, geometric mean (geometric CV %)", "description": "Urine was collected to further assess taniborbactam pharmacokinetics. Subjects were instructed to empty their bladders completely before study drug administration and just before the end of each collection interval. Urine from each timed interval was collected in a separate container. The exact start dates, stop dates, times of urine collection, and the weight and volume of each collection were recorded. Urine samples were collected within intervals of 0 to 6 h, 6 to 12 h, 12 to 24 h, 24 to 48 h, 48 to 72 h, and 72 to 96 h following the SOI. […] Urine samples were not collected from anuric subjects.\n[…]. […] […]."}, "[4]": {"test_system": "Ambler Class A, C, and D serine-β-lactamases, and the Ambler class B metallo-β-lactamases", "conditions": "including VIM and NDM; cited from earlier work"}, "[5]": {"experiment": "Dialysis parameters (dialysis clearance, hemodialysis extraction ratio)", "assay_type": "in vivo, human", "description": "as §1\nHuman dipotassium ethylenediaminetetraacetic acid plasma samples were processed using protein precipitation prior to assay. Urine samples collected for pharmacokinetic analysis in the study were processed and assayed for only taniborbactam using a validated bioanalytical method. […] Acidified urine and dialysate samples were processed using solid-phase extraction prior to assay.\n(§4) Validated LC-MS/MS methods (LLOQ = 5.00 ng/mL) were used to quantitate the concentrations of taniborbactam in urine.\nas §3"}, "[6]": {"conditions": "human, in vivo", "text": "Subjects aged 18 to 80 years were enrolled into 1 of 4 groups based on the level of renal function (renal groups). […] Subjects in the Normal group were matched to subjects with renal impairment with regard to gender, age (±10 years), and weight (±10 kg). A single healthy subject may have been the match for more than one subject with renal impairment.\nHuman dipotassium ethylenediaminetetraacetic acid plasma samples were processed using protein precipitation prior to assay. Urine samples collected for pharmacokinetic analysis in the study were processed and assayed for only taniborbactam using a validated bioanalytical method. […]\nas §4\nas §2, with “calculated.” for “calculated. The actual sample times were used to calculate the pharmacokinetic parameters.”, “calculated. […]” for “calculated.”"}, "[7]": {"experiment": "Safety and tolerability in subjects with various degrees of renal impairment", "conditions": "human, in vivo", "description": "Safety was assessed based on the occurrence of adverse events and on the evaluation of laboratory tests (chemistry, hematology, urinalysis, and coagulation), physical examinations, vital signs, and 12-lead ECGs. Safety was followed through 7 days post-dose."}, "[8]": {"conditions": "Dialysis group, Off-dialysis (n = 7)"}, "[9]": {"conditions": "Dialysis group, On-dialysis (n = 6)"}},
  "note": "Like-named read-outs stand apart in the source and are kept apart here. Marks after values point to notes of the source that are not given here.",
  "data": [
    {"molecule": "CO/N=C(\\C(=O)N[C@@H]1C(=O)N2C(C(=O)[O-])=C(C[N+]3(C)CCCC3)CS[C@H]12)c1csc(N)n1", "note": "[cefepime, Cefepime, reference compound]", "values": [
      {"measurement": "amount removed during a hemodialysis session", "setting": "[1]; 3 h hemodialysis session", "value": "approximately 68%"},
      {"measurement": "dose excreted unchanged in urine", "setting": "[1]; following administration of 0.25 to 2 g cefepime", "value": "at least 80%"},
      {"measurement": "AUC(0-inf)", "setting": "[2]; male, human, plasma, iv, Dialysis group, Off-dialysis (n = 7)", "value": 4550, "unit": "µg·h/mL"},
      {"measurement": "Cmax", "setting": "[2]; male, human, plasma, iv, Dialysis group, Off-dialysis (n = 7), read-out: Cmax", "value": 165, "unit": "µg/mL"},
      {"measurement": "AUC(0-inf)", "setting": "[2]; male, human, plasma, iv, Dialysis group, On-dialysis (n = 6)", "value": 1600, "unit": "µg·h/mL"},
      {"measurement": "Cmax", "setting": "[2]; male, human, plasma, iv, Dialysis group, On-dialysis (n = 6), read-out: Cmax", "value": 105, "unit": "µg/mL"}
    ]},
    {"molecule": "NCCN[C@H]1CC[C@H](CC(=O)N[C@H]2Cc3cccc(C(=O)O)c3OB2O)CC1", "note": "[taniborbactam, Taniborbactam]", "values": [
      {"measurement": "CLR", "setting": "[3]; Mild renal impairment (n = 6)", "value": "4.23 (22.7) L/h"},
      {"measurement": "CLR", "setting": "[3]; Moderate renal impairment (n = 6)", "value": "1.59 (21.0) L/h"},
      {"measurement": "CLR", "setting": "[3]; Normal renal function (n = 7)", "value": "4.37 (17.8)^d L/h"},
      {"measurement": "CLR", "setting": "[3]; Severe renal impairment (n = 6)", "value": "0.76 (120.3) L/h"},
      {"measurement": "dose recovered in urine as unchanged parent compound", "setting": "[1]; at steady-state", "value": "approximately 89%"},
      {"measurement": "AUCinf", "setting": "[2]; [8]", "value": "2003 (32.1) h·μg/mL"},
      {"measurement": "CL", "setting": "[2]; [8]", "value": "0.245 (29.8) L/h"},
      {"measurement": "Cmax", "setting": "[2]; [8]", "value": "37.7 (73.7) μg/mL"},
      {"measurement": "VZ", "setting": "[2]; [8]", "value": "23.7 (13.4) L"},
      {"measurement": "t1/2", "setting": "[2]; [8]", "value": "70.8 (22.3) h"},
      {"measurement": "AUCinf", "setting": "[2]; [9]", "value": "851 (23.0) h·μg/mL"},
      {"measurement": "CL", "setting": "[2]; [9]", "value": "0.579 (23.0) L/h"},
      {"measurement": "Cmax", "setting": "[2]; [9]", "value": "23.4 (9.5) μg/mL"},
      {"measurement": "VZ", "setting": "[2]; [9]", "value": "68.1 (15.1) L"},
      {"measurement": "t1/2", "setting": "[2]; [9]", "value": "83.7 (21.5) h"},
      {"measurement": "decrease in geometric mean AUC following hemodialysis", "setting": "[2]; Dialysis group, On-dialysis vs Off-dialysis", "value": 58, "unit": "%"},
      {"measurement": "AUCinf least-squares GMR (90% CI)", "setting": "[2]; On-dialysis/Off-dialysis", "value": 39.29, "unit": "%"},
      {"measurement": "β-lactamase inhibition", "setting": "[4]", "value": "potent competitive inhibition"},
      {"measurement": "hemodialysis extraction ratio (HER), fraction of dose removed during hemodialysis, mean (SD)", "setting": "[5]; On-dialysis period, 4 h hemodialysis session", "value": 49.7, "unit": "%"},
      {"measurement": "dialysis clearance (CLd), mean (SD)", "setting": "[5]; On-dialysis period, 4 h hemodialysis, Qb 350 to 450 mL/min", "value": "102 (5.3) mL/min"},
      {"measurement": "dialyzability", "setting": "[5]; hemodialysis", "value": "dialyzable"},
      {"measurement": "VZ least-square geometric mean ratio (90% CI)", "setting": "[6]", "value": 149.94, "unit": "%"}
    ]},
    {"molecule": "cefepime-taniborbactam", "values": [
      {"measurement": "adverse events considered related to treatment", "setting": "[7]", "value": "7 of 8"},
      {"measurement": "adverse events mild in severity", "setting": "[7]", "value": "7 of 8"},
      {"measurement": "deaths", "setting": "[7]", "value": "no deaths"},
      {"measurement": "number of treatment emergent adverse events", "setting": "[7]", "value": 8},
      {"measurement": "serious adverse events", "setting": "[7]", "value": "No subjects experienced serious adverse events"},
      {"measurement": "subjects who experienced treatment emergent adverse events", "setting": "[7]", "value": 7, "unit": "subjects"}
    ]}
  ]
}
